In the NIST ThermoML archive (doi:10.1021/je060271a):

Conditions: 323.15 K, Liquid, Vibrating tube method

CCCCCCCC(=O)OCC(COC(=O)CCCCCCC)(COC(=O)CCCCCCC)COC(=O)CCCCCCC [pentaerythritol tetraoctanoate]
Conditions	mass density [kg/m3]
26616 kPa	957.5
26661 kPa	957.4
26699 kPa	957.6
26737 kPa	957.5
26782 kPa	957.5
26820 kPa	957.5
26866 kPa	957.6
26904 kPa	957.6
26944 kPa	957.7
26985 kPa	957.7
27024 kPa	957.7
27070 kPa	957.8
27109 kPa	957.9
27407 kPa	957.9
27548 kPa	957.8
27601 kPa	958
27639 kPa	958.1
27665 kPa	958.1
27687 kPa	958.2
27713 kPa	958.1
27735 kPa	958.1
27761 kPa	958.2
27784 kPa	958.1
27806 kPa	958.3
27832 kPa	958.2
27854 kPa	958.3
27877 kPa	958.2
27899 kPa	958.2
27926 kPa	958.2
27943 kPa	958.3
27970 kPa	958.3
28091 kPa	958.4
28114 kPa	958.4
28142 kPa	958.4
28164 kPa	958.3
28188 kPa	958.3
28216 kPa	958.4
28238 kPa	958.4
28262 kPa	958.4
28284 kPa	958.5
28312 kPa	958.6
28336 kPa	958.5
28358 kPa	958.6
28386 kPa	958.5
28410 kPa	958.5
28434 kPa	958.4
28461 kPa	958.5
28484 kPa	958.5
28508 kPa	958.6
28531 kPa	958.6
28559 kPa	958.6
28583 kPa	958.6
28607 kPa	958.7
28635 kPa	958.6
28658 kPa	958.7
28687 kPa	958.9
28711 kPa	958.7
28734 kPa	958.8
28758 kPa	958.6
28787 kPa	958.8
28812 kPa	958.8
28836 kPa	958.8
28860 kPa	958.9
28889 kPa	958.7
28913 kPa	958.9
28937 kPa	958.8
28966 kPa	958.9
28990 kPa	958.9
29019 kPa	958.9
29043 kPa	958.8
29068 kPa	958.9
29098 kPa	958.9
29122 kPa	958.9
29148 kPa	958.9
29173 kPa	959.1
29198 kPa	959
29218 kPa	959
29248 kPa	959
29273 kPa	959
29302 kPa	959.1
29333 kPa	959.1
29357 kPa	959.1
29383 kPa	959.1
29412 kPa	959.1
29438 kPa	959.2
29462 kPa	959.2
29494 kPa	959.2
29520 kPa	959.1
29545 kPa	959.2
29571 kPa	959.2
29601 kPa	959.1
29627 kPa	959.3
29652 kPa	959.2
29682 kPa	959.4
29708 kPa	959.2
29733 kPa	959.3
29764 kPa	959.3
29790 kPa	959.3
29816 kPa	959.3
29847 kPa	959.3
29873 kPa	959.4
29898 kPa	959.4
29924 kPa	959.4
29956 kPa	959.4
29982 kPa	959.4
30013 kPa	959.4
30040 kPa	959.4
30060 kPa	959.5
30087 kPa	959.5
30118 kPa	959.5
30150 kPa	959.6
30181 kPa	959.6
30209 kPa	959.5
30235 kPa	959.6
30267 kPa	959.6
30294 kPa	959.6
30321 kPa	959.6
30347 kPa	959.6
30380 kPa	959.7
30407 kPa	959.7
30434 kPa	959.6
30466 kPa	959.7
30493 kPa	959.7
30521 kPa	959.7
30553 kPa	959.8
30581 kPa	959.6
30608 kPa	959.8
30635 kPa	959.8
30668 kPa	959.8
30696 kPa	959.8
30728 kPa	959.8
30756 kPa	959.9
30778 kPa	959.9
30806 kPa	959.9
30834 kPa	960
30862 kPa	959.9
30906 kPa	960
30934 kPa	959.8
30962 kPa	959.9
30991 kPa	960
31025 kPa	960
31053 kPa	959.9
31086 kPa	960
31115 kPa	960
31143 kPa	959.9
31171 kPa	960.1
31205 kPa	960.1
31233 kPa	960.2
